In ChEMBL document CHEMBL1201862, “PubChem BioAssay data set” (2004):
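Five compound concentrations were applied to cells in 96-well plates for 48 hours; endpoints were derived by simple linear interpolation of the resulting dose-response curve. GI50 is the concentration that inhibits growth by half.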 Active and inactive are the calls of the source. Rule as the data show it: active = GI50 up to about 1.1 µM and inactive = higher.

Legend:
Assay in all cases: NCI anticancer screen, dose series, 48 h
LOX IMVI = test system: LOX IMVI
NCI-H522 = test system: NCI-H522
A549 = test system: A549
COLO 205 = test system: COLO 205
BT-549 = test system: BT-549
HL-60 = test system: HL-60
Hs-578T = test system: Hs-578T
SNB-78 = test system: SNB-78
SF-268 = test system: SF-268
UACC-257 = test system: UACC-257
NCI-H23 = test system: NCI-H23
TK-10 = test system: TK-10
OVCAR-5 = test system: OVCAR-5
K562 = test system: K562
SF-539 = test system: SF-539
SW-620 = test system: SW-620
NCI/ADR-RES = test system: NCI/ADR-RES
HCC 2998 = test system: HCC 2998
HCT-116 = test system: HCT-116
PC-3 = test system: PC-3

Measured: GI50

O=C1c2ccccc2C(=O)c2c(NCCCNCCO)ccc(NCCCNCCO)c21
inactive: LOX IMVI 3.5 µM | NCI-H522 3.03 µM | A549 11.5 µM | COLO 205 5.85 µM | BT-549 14.5 µM | HL-60 8.97 µM | Hs-578T 5.52 µM | SNB-78 8.32 µM | SF-268 4.82 µM | UACC-257 15.2 µM | NCI-H23 10.7 µM | TK-10 16 µM | OVCAR-5 8.91 µM | K562 2.64 µM | SF-539 4.24 µM | SW-620 5.13 µM | NCI/ADR-RES 28.5 µM | HCC 2998 5.37 µM | HCT-116 4.33 µM | PC-3 7.67 µM

c1ccc2c(c1)CCc1c(-c3ccncc3)n[nH]c1-2
inactive: LOX IMVI 23.3 µM | NCI-H522 > 10 µM | A549 30.8 µM | COLO 205 25.7 µM | HL-60 34.3 µM | SNB-78 29.6 µM | SF-268 28.8 µM | UACC-257 25.6 µM | NCI-H23 19.4 µM | TK-10 29.8 µM | OVCAR-5 32.7 µM | K562 48.2 µM | SF-539 24.8 µM | SW-620 39.7 µM | HCC 2998 33.1 µM | HCT-116 22.2 µM

COc1cc2cc3c4c(cc(OC)c(OC)c4c2cc1OC)CCN3C(=O)N(C)C
inactive: LOX IMVI > 100 µM | NCI-H522 29.9 µM | A549 > 100 µM | COLO 205 > 100 µM | HL-60 > 100 µM | SNB-78 > 100 µM | SF-268 > 100 µM | UACC-257 > 100 µM | NCI-H23 > 10 µM | TK-10 > 10 µM | OVCAR-5 > 100 µM | K562 > 100 µM | SF-539 34.5 µM | SW-620 > 100 µM | HCC 2998 > 100 µM | HCT-116 > 100 µM

Cc1cccc(C)c1NC(=O)C(C#N)C1=C(Cl)C(=O)c2ccccc2C1=O (centres undefined)
inactive: LOX IMVI 9.33 µM | NCI-H522 10.5 µM | A549 19.7 µM | COLO 205 6.35 µM | BT-549 14.6 µM | HL-60 5.53 µM | Hs-578T 12.1 µM | SNB-78 23.4 µM | SF-268 15.5 µM | UACC-257 13.9 µM | NCI-H23 18.7 µM | TK-10 19.5 µM | OVCAR-5 19.3 µM | K562 2.77 µM | SF-539 21.4 µM | SW-620 11.9 µM | HCC 2998 17.8 µM | HCT-116 15.4 µM | PC-3 13.8 µM

COC(=O)C1=C(CO)C2C=CC1C2 (centres undefined)
inactive: LOX IMVI > 100 µM | NCI-H522 > 100 µM | A549 > 100 µM | COLO 205 > 100 µM | HL-60 > 100 µM | SNB-78 > 100 µM | SF-268 > 100 µM | UACC-257 > 100 µM | NCI-H23 > 100 µM | TK-10 > 100 µM | OVCAR-5 > 100 µM | K562 > 100 µM | SF-539 > 100 µM | SW-620 > 100 µM | HCC 2998 > 100 µM | HCT-116 > 100 µM

CCOC(=O)c1c2cccccc2n2c(=O)cc(C)nc12
inactive: LOX IMVI > 100 µM | NCI-H522 > 100 µM | A549 > 100 µM | COLO 205 > 100 µM | HL-60 > 100 µM | SNB-78 > 100 µM | SF-268 69.8 µM | UACC-257 > 100 µM | NCI-H23 > 100 µM | TK-10 > 100 µM | OVCAR-5 > 100 µM | K562 > 100 µM | SF-539 > 100 µM | SW-620 > 100 µM | HCC 2998 > 100 µM

c1ccc(C2N=NN(c3ccccc3)C2N2CCCCC2)cc1 (centres undefined)
inactive: LOX IMVI > 100 µM | NCI-H522 > 100 µM | A549 > 100 µM | COLO 205 > 100 µM | HL-60 > 100 µM | SNB-78 75 µM | SF-268 46.5 µM | UACC-257 > 100 µM | NCI-H23 > 100 µM | TK-10 > 100 µM | OVCAR-5 > 100 µM | K562 > 100 µM | SF-539 55.8 µM | SW-620 > 100 µM | HCC 2998 > 100 µM | HCT-116 > 100 µM

Nc1nc(N)c(N=O)c(Nc2ccc(I)cc2)n1
inactive: LOX IMVI 9.12 µM | NCI-H522 12.1 µM | A549 65.8 µM | COLO 205 18.6 µM | HL-60 6.53 µM | SNB-78 18.2 µM | SF-268 13.9 µM | UACC-257 19.5 µM | NCI-H23 18.2 µM | TK-10 31 µM | OVCAR-5 19.2 µM | K562 14.1 µM | SF-539 25.5 µM | SW-620 30 µM | HCC 2998 27.5 µM | HCT-116 14.3 µM

O=C(CC(=O)c1ccccc1)C(=O)Nc1ccc(Cl)cc1
inactive: LOX IMVI > 42 µM | NCI-H522 97.9 µM | A549 > 94.6 µM | COLO 205 > 46.2 µM | HL-60 > 100 µM | SNB-78 > 100 µM | SF-268 > 100 µM | UACC-257 > 61.5 µM | NCI-H23 > 100 µM | TK-10 > 100 µM | OVCAR-5 > 100 µM | K562 > 85.5 µM | SF-539 > 100 µM | SW-620 > 42.8 µM | HCC 2998 > 64.3 µM | HCT-116 > 42.8 µM

CC1Nc2ccccc2NC1C=C(C#N)C#N (centres undefined)
inactive: LOX IMVI 11.3 µM | NCI-H522 10.9 µM | A549 22.8 µM | COLO 205 18.7 µM | HL-60 1.85 µM | SNB-78 15.3 µM | SF-268 14.7 µM | UACC-257 > 10 µM | NCI-H23 17.2 µM | TK-10 19.6 µM | OVCAR-5 18.9 µM | K562 8.32 µM | SF-539 13.2 µM | SW-620 12.2 µM | HCC 2998 18.4 µM | HCT-116 13.5 µM

O=C(/C=C/c1ccccc1F)c1ccc(Cl)c(Cl)c1
inactive: LOX IMVI 15.4 µM | NCI-H522 23.2 µM | A549 64 µM | COLO 205 75.3 µM | HL-60 18.9 µM | SNB-78 > 69.3 µM | SF-268 38.3 µM | UACC-257 49.4 µM | NCI-H23 14.2 µM | TK-10 > 100 µM | OVCAR-5 > 87.1 µM | K562 20.5 µM | SF-539 30 µM | SW-620 29.3 µM | HCC 2998 24.7 µM | HCT-116 16.3 µM

OCCC1(O)CCC(O)CC1 (centres undefined)
inactive: LOX IMVI > 100 µM | NCI-H522 > 100 µM | A549 > 100 µM | COLO 205 > 100 µM | HL-60 > 100 µM | SNB-78 > 100 µM | SF-268 > 100 µM | UACC-257 > 100 µM | NCI-H23 > 100 µM | TK-10 > 100 µM | OVCAR-5 > 100 µM | K562 > 100 µM | SF-539 > 100 µM | SW-620 > 100 µM | HCC 2998 > 100 µM | HCT-116 > 100 µM

NC(CCSCC(F)(F)F)C(=O)O (centres undefined)
inactive: LOX IMVI > 100 µM | NCI-H522 > 100 µM | A549 > 100 µM | COLO 205 > 100 µM | HL-60 > 100 µM | SNB-78 > 100 µM | SF-268 > 100 µM | UACC-257 > 100 µM | NCI-H23 > 100 µM | TK-10 > 100 µM | OVCAR-5 > 100 µM | K562 > 100 µM | SF-539 > 100 µM | SW-620 > 100 µM | HCC 2998 > 100 µM | HCT-116 > 100 µM
